The target in assay [1] is T1, Btk (human, full length) (Homo sapiens, UniProt Q06187).
T1 construct: Btk (human, full length) was purchased (Invitrogen, catalog number PV3363); purchased Invitrogen PV3363
In words: Btk in vitro kinase activity assay (32P-ATP, poly[Glu:Tyr]). The assay is classed as biochemical. Conditions: 30 min pre-incubation with inhibitor, 5 nM Btk. The procedure: General Procedure for Btk In Vitro Kinase Activity Assay.
Btk (human, full length) was purchased (Invitrogen, catalog number PV3363) and used following a procedure modified from the product literature. […] Subsequently, Btk (5 nM final concentration) in kinase assay buffer supplemented with BSA (0.1 mg/mL) was pre-incubated with inhibitors (six or ten concentrations, in duplicate, 5% DMSO final concentration) for 30 minutes at room temperature. Kinase reactions were initiated by the addition of 0.16 μCi/μL of γ-^32P-ATP (6000 Ci/mmol, NEN) and 0.2 mg/mL substrate (poly[Glu:Tyr], 4:1 Glu:Tyr) and incubated for 30 minutes at room temperature. Kinase activity was determined by spotting 5 μL of each reaction onto sheets of phosphocellulose. Each blot was washed once with 10% AcOH solution, twice with 0.1% H3PO4 solution, and once with MeOH (5-10 minutes per wash). Dried blots were exposed for 30 minutes to a storage phosphor screen and scanned by a Typhoon imager (GE Life Sciences). The data were quantified using ImageQuant (v. 5.2, Molecular Dynamics) and plotted using GraphPad Prism 4.0 software.

The target in assay [2] is BTK (Homo sapiens, UniProt Q06187). Description: Reversibility of binding: compound in solution before and after perturbation of the target (HPLC-MS/MS). The procedure: The following approach was developed to differentiate compounds that form irreversible bonds with their targets, such as acrylamide compounds, from compound that bind reversibly. […] The reactions were then treated with perturbations including both denaturation with 5 M guanidine hydrochloride and digestion with trypsin, disrupting proper folding of the target. […] The concentration of compound in solution was assessed both preceding and following perturbation using high performance liquid chromatography (HPLC) coupled to tandem mass spectrometry.
Sequence of BTK (Q06187 whole entry): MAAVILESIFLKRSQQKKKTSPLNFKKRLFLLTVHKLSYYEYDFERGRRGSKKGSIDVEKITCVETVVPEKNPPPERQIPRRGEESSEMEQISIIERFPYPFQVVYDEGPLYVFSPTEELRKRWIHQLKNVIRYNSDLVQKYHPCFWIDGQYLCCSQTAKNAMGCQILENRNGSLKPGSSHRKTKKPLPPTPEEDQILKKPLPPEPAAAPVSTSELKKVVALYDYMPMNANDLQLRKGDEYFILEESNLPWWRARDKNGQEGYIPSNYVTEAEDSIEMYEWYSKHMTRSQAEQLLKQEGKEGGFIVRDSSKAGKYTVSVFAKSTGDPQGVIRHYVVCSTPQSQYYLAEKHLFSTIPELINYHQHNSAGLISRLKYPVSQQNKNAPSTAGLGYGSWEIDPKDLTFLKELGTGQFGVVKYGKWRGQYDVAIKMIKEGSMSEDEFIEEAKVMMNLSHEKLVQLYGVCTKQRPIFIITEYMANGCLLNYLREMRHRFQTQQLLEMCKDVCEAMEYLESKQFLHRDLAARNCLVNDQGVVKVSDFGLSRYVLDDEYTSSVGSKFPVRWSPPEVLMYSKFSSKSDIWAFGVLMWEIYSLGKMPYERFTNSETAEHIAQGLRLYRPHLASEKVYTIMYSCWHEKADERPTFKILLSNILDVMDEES

Molecules are shown by their SMILES.

Here are results for 13 molecules from patent US9580427B2, “Kinase inhibitors” (The Regents of the University of California, priority 2011, dated 2017).

T1 sequence (Q06187 whole entry): as above

As usually defined, the IC50 is the concentration that gives 50% inhibition. A higher IC50 goes with weaker potency in that assay. The molecule `N#C/C(=C\c1ccccc1)C(=O)N1CCCC(n2nc(-c3ccc(Oc4ccccc4)cc3)c3c(N)ncnc32)C1` (centres unmarked) had an IC50 in assay [1] of less than 100 nM.

Molecule `N#C/C(=C\c1ccccc1Cl)C(=O)N1CCCC(n2nc(-c3ccc(Oc4ccccc4)cc3)c3c(N)ncnc32)C1` (centres unmarked) registered an IC50 in assay [1] of less than 100 nM.

`N#C/C(=C\C1CC1)C(=O)N1CC[C@@H](n2nc(-c3ccc(Cl)cc3)c3c(N)ncnc32)C1` gave an IC50 in assay [1] of less than 100 nM.

In turn, `N#C/C(=C\C1CC1)C(=O)N1CCCC(n2nc(-c3ccc(Cl)cc3)c3c(N)ncnc32)C1` (centres unmarked) returned an IC50 in assay [1] of less than 100 nM.

Molecule `N#C/C(=C\C1CC1)C(=O)N1CC[C@@H](n2nc(-c3ccc(Oc4ccccc4)cc3)c3c(N)ncnc32)C1` yielded an IC50 in assay [1] of less than 1000 nM.

Molecule `N#C/C(=C\C1CC1)C(=O)N1CC[C@H](n2nc(-c3ccc(Oc4ccccc4)cc3)c3c(N)ncnc32)C1` returned an IC50 in assay [1] of less than 1000 nM.

In turn, `CN(C)C(C)(C)/C=C(\C#N)C(=O)N1CCC[C@@H](n2nc(-c3ccc(Oc4ccccc4)cc3)c3c(N)ncnc32)C1` gave an IC50 in assay [1] of less than 100 nM.

With `CC(C)(/C=C(\C#N)C(=O)N1CCC[C@@H](n2nc(-c3ccc(Oc4ccccc4)cc3)c3c(N)ncnc32)C1)CO`, in assay [1], the IC50 was less than 1000 nM.

`N#C/C(=C\C1CC1)C(=O)N1CCC(n2nc(-c3ccc(Oc4ccccc4)cc3)c3c(N)ncnc32)CC1` returned an IC50 in assay [1] of less than 1000 nM.

Consider `N#C/C(=C\C1CC1)C(=O)N1CCC(Cn2nc(-c3ccc(Oc4ccccc4)cc3)c3c(N)ncnc32)CC1`, for which, in assay [1], the IC50 was less than 1000 nM.

With `N#C/C(=C\C1CC1)C(=O)N[C@H]1CC[C@@H](n2nc(-c3ccc(Oc4ccccc4)cc3)c3c(N)ncnc32)CC1`, the IC50 in assay [1] is less than 1000 nM.

In turn, `N#C/C(=C\C1CC1)C(=O)N1CCCC(Cn2nc(-c3ccc(Oc4ccccc4)cc3)c3c(N)ncnc32)C1` (centres unmarked) [drawing 184] returned an IC50 in assay [1] of less than 1000 nM.

With `N#C/C(=C\C1CC1)C(=O)N1CCCC(Cn2nc(-c3ccc(Oc4ccccc4)cc3)c3c(N)ncnc32)C1` (centres unmarked) [drawing 187], in assay [2] (after 5 M guanidine hydrochloride denaturation and trypsin digestion), the “Compound in solution in the denatured or digested state?” value is given as “yes”. Also, the “Compound in solution in the native state?” value in assay [2] (protein target in excess over compound, native state) is “no”.
